How the values were obtained:
Type in all cases: in vivo
[1] = tested on: rice green leafhopper (nephotettix virescens); test: Rice green leafhopper on sprayed rice seedlings; settings: 300 ppm, adults, after 72 hours
Protocol: II.12 Rice Green Leafhopper (nephotettix virescens)
Rice seedlings were cleaned and washed 24 hours before spraying. The active compounds were formulated in 50:50 acetone:water (vol/vol), and 0.1% (vol/vol) surfactant (EL 620) was added. Potted rice seedlings were sprayed with 5 ml test solution, air dried, placed in cages and inoculated with 10 adults. Treated rice plants were kept at about 28-29° C. and relative humidity of about 50-60%. Percent mortality was recorded after 72 hours.

[2] = tested on: green peach aphid (Myzus persicae); test: Green peach aphid, pepper plant leaf dip test; settings: 300 ppm; pepper plants dipped; after 5 days
Description: II.11 Green Peach Aphid (myzus persicae)
(§1) The active compounds were formulated in 50:50 acetone:water (vol/vol) and 100 ppm Kinetic™ surfactant.
Pepper plants in the 2nd leaf-pair stage (variety “California Wonder”) were infested with approximately 40 laboratory-reared aphids by placing infested leaf sections on top of the test plants. The leaf sections were removed after 24 hr. The leaves of the intact plants were dipped into gradient solutions of the test compound and allowed to dry. Test plants were maintained under fluorescent light (24 hour photoperiod) at about 25° C. and about 20-40% relative humidity. Aphid mortality on the treated plants, relative to mortality on check plants, was determined after 5 days.

[3] = tested on: silverleaf whitefly (bemisia argentifolii); test: Silverleaf whitefly, cotton cotyledon dip test; settings: 300 ppm; cotyledons dipped; 3 days after treatment
Protocol: II.9 Silverleaf Whitefly (bemisia argentifolii)
as §1
Selected cotton plants were grown to the cotyledon state (one plant per pot). The cotyledons were dipped into the test solution to provide complete coverage of the foliage and placed in a well-vented area to dry. Each pot with treated seedling was placed in a plastic cup and 10 to 12 whitefly adults (approximately 3-5 day old) were introduced. The insects were collected using an aspirator and a Tygon® tubing connected to a barrier pipette tip. The tip containing the collected insects was then gently inserted into the soil containing the treated plant allowing insects to crawl out of the tip to reach the foliage for feeding. The cups were covered with a re-usable screened lid. Test plants were maintained in the holding room at about 25° C. and about 20-40% relative humidity for 3 days avoiding direct exposure to the fluorescent light (24 hour photoperiod) to prevent trapping of heat inside the cup. Mortality was assessed 3 days after treatment of the plants.

[4] = tested on: adult female rats; test: Acute oral rat toxicity study, single oral gavage, 14 days observation; settings: three rats per study, single oral gavage dose 100 mg/kg bw
Protocol: Some representatives of the compounds according to the present invention have been tested in acute oral rat toxicity studies.
In these studies, test substances were administered to adult female rats by oral gavage for one time. The compounds were administered as a 1% b.w. suspension or the compound in a 1% aqueous carboxymethyl cellulose solution. In each study three rats were used. The animals were treated with a single dose of 100 mg/kg bw. […] After the 14 day observation period, the animals were sacrificed, dissected, and examined for gross pathological lesions.

Row | SMILES | Lethality (cumulative) 0-5 h after treatment [4] | Lethality (cumulative) 1 d after treatment [4] | Lethality (cumulative) 2 d after treatment [4] | Lethality (cumulative) 7 d after treatment [4] | Lethality (cumulative) 14 d after treatment [4] | also measured
1 | COc1cc(CN2C(=O)c3cc(-c4ccc(F)cc4F)ccc3S2(=O)=O)ccn1 [I.19] | – | – | – | – | – | mortality in comparison with untreated controls [1]: over 75%
2 | O=C1c2cc(-c3ccc(F)cc3F)ccc2S(=O)(=O)N1Cc1ccncc1 [I.20] | – | – | – | – | – | mortality in comparison with untreated controls [2]: over 75%
3 | O=C1c2cc(-c3ccc(F)cc3F)ccc2S(=O)(=O)N1Cc1ccnc2cc(C(F)(F)F)ccc12 [I.28] | – | – | – | – | – | mortality in comparison with untreated controls [3]: over 75%
4 | Cc1nccc(CN2C(=O)c3cc(-c4ccc(C(F)(F)F)cc4Cl)ccc3S2(=O)=O)c1C [I.34] | 0 | 0 | 0 | 0 | 1 | –
5 | Cc1nccc(CN2C(=O)c3cc(-c4ccc(Cl)cc4C(F)(F)F)ccc3S2(=O)=O)c1C [I.35] | 0 | 0 | 0 | 0 | 2 | –

From US20110166162A1, “1,2-Benzisothiazole Compounds Useful for Combating Animal Pests” (priority 2007, published 2011)
